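Step 1: Grow cells in 96-well plates. Step 2: Expose to compound for 48 hours at 5 concentrations. Step 3: Interpolate endpoints linearly; if unreached, use highest concentration. GI50: concentration for 50% inhibition of growth. The concentration for full growth arrest is given as TGI.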
How the values were obtained:
Experiment in all cases: inhibition of tumour cell growth, NCI panel, 48 h
786-0 renal = system: 786-0 renal
A498 renal = system: A498 renal
A549 NSCLC = system: A549 NSCLC
ACHN renal = system: ACHN renal
BT-549 breast = system: BT-549 breast
CAKI-1 renal = system: CAKI-1 renal
CCRF-CEM leukemia = system: CCRF-CEM leukemia
COLO 205 colon = system: COLO 205 colon
DU-145 prostate = system: DU-145 prostate
EKVX NSCLC = system: EKVX NSCLC
HCC-2998 colon = system: HCC-2998 colon
HCT-116 colon = system: HCT-116 colon
HCT-15 colon = system: HCT-15 colon
HL-60(TB) leukemia = system: HL-60(TB) leukemia
HOP-62 NSCLC = system: HOP-62 NSCLC
HOP-92 NSCLC = system: HOP-92 NSCLC
HS 578T breast = system: HS 578T breast
HT29 colon = system: HT29 colon
IGROV1 ovarian = system: IGROV1 ovarian
K-562 leukemia = system: K-562 leukemia
KM12 colon = system: KM12 colon
LOX IMVI melanoma = system: LOX IMVI melanoma
M14 melanoma = system: M14 melanoma
MALME-3M melanoma = system: MALME-3M melanoma
MCF7 breast = system: MCF7 breast
MDA-MB-231 breast = system: MDA-MB-231 breast
MDA-MB-435 = system: MDA-MB-435
MOLT-4 leukemia = system: MOLT-4 leukemia
NCI-H226 lung = system: NCI-H226 lung
NCI-H23 lung = system: NCI-H23 lung
NCI-H460 lung = system: NCI-H460 lung
NCI-H522 lung = system: NCI-H522 lung
NCI/ADR-RES ovarian = system: NCI/ADR-RES ovarian
OVCAR-3 ovarian = system: OVCAR-3 ovarian
OVCAR-4 ovarian = system: OVCAR-4 ovarian
OVCAR-5 ovarian = system: OVCAR-5 ovarian
OVCAR-8 ovarian = system: OVCAR-8 ovarian
PC-3 prostate = system: PC-3 prostate
RPMI-8226 leukemia = system: RPMI-8226 leukemia
RXF 393 renal = system: RXF 393 renal
SF-268 CNS = system: SF-268 CNS
SF-295 CNS = system: SF-295 CNS
SF-539 CNS = system: SF-539 CNS
SK-MEL-2 melanoma = system: SK-MEL-2 melanoma
SK-MEL-28 melanoma = system: SK-MEL-28 melanoma
SK-MEL-5 melanoma = system: SK-MEL-5 melanoma
SK-OV-3 ovarian = system: SK-OV-3 ovarian
SN12C renal = system: SN12C renal
SNB-19 CNS = system: SNB-19 CNS
SW-620 colon = system: SW-620 colon
T-47D breast = system: T-47D breast
TK-10 renal = system: TK-10 renal
U251 CNS = system: U251 CNS
UACC-257 melanoma = system: UACC-257 melanoma
UACC-62 melanoma = system: UACC-62 melanoma
UO-31 renal = system: UO-31 renal

`COc1cc(/C=C/c2cc(/C=C/c3ccc(O)c(OC)c3)n(-c3c(Cl)cccc3Cl)c(=O)n2)ccc1O` gave a GI50 (786-0 renal) of 2.74 µM, a TGI (786-0 renal) of 8.51 µM and a GI50 (A498 renal) of 3.79 µM. It also gave a TGI (A498 renal) of 13.2 µM, a GI50 (A549 NSCLC) of 4.03 µM and a TGI (A549 NSCLC) of 15 µM. For the same molecule, the GI50 (ACHN renal) was 2.84 µM, the TGI (ACHN renal) was 12.7 µM and the GI50 (BT-549 breast) was 2.07 µM. The TGI (BT-549 breast) was 6.67 µM, the GI50 (CAKI-1 renal) was 14.6 µM and the TGI (CAKI-1 renal) was 30 µM. It also gave a GI50 (CCRF-CEM leukemia) of 3.21 µM, a TGI (CCRF-CEM leukemia) of 70.6 µM and a GI50 (COLO 205 colon) of 2.84 µM. The TGI (COLO 205 colon) was 8.95 µM, the GI50 (DU-145 prostate) was 3.48 µM and the TGI (DU-145 prostate) was 13 µM. The GI50 (EKVX NSCLC) was 3.26 µM, the TGI (EKVX NSCLC) was 14.8 µM and the GI50 (HCC-2998 colon) was 1.83 µM. The TGI (HCC-2998 colon) was 3.53 µM, the GI50 (HCT-116 colon) was 1.31 µM and the TGI (HCT-116 colon) was 5.25 µM. It also gave a GI50 (HCT-15 colon) of 2.44 µM, a TGI (HCT-15 colon) of 9.66 µM and a GI50 (HL-60(TB) leukemia) of 2.64 µM. It also gave a TGI (HL-60(TB) leukemia) of 14.4 µM, a GI50 (HOP-62 NSCLC) of 3.41 µM and a TGI (HOP-62 NSCLC) of 12.8 µM. It also gave a GI50 (HOP-92 NSCLC) of 4.22 µM, a TGI (HOP-92 NSCLC) of 16.4 µM and a GI50 (HS 578T breast) of 5.48 µM. For the same molecule, the TGI (HS 578T breast) was over 100 µM, the GI50 (HT29 colon) was 1.77 µM and the TGI (HT29 colon) was 3.36 µM. For the same molecule, the GI50 (IGROV1 ovarian) was 3.01 µM, the TGI (IGROV1 ovarian) was 12.3 µM and the GI50 (K-562 leukemia) was 3.11 µM. The TGI (K-562 leukemia) was over 100 µM, the GI50 (KM12 colon) was 2.02 µM and the TGI (KM12 colon) was 5.27 µM. The GI50 (LOX IMVI melanoma) was 1.68 µM, the TGI (LOX IMVI melanoma) was 3.57 µM and the GI50 (M14 melanoma) was 2.38 µM. The TGI (M14 melanoma) was 6.87 µM, the GI50 (MALME-3M melanoma) was 3.88 µM and the TGI (MALME-3M melanoma) was 15.7 µM. The GI50 (MCF7 breast) was 2 µM, the TGI (MCF7 breast) was 11 µM and the GI50 (MDA-MB-231 breast) was 3.65 µM. The TGI (MDA-MB-231 breast) was 15.1 µM, the GI50 (MDA-MB-435) was 1.63 µM and the TGI (MDA-MB-435) was 5.98 µM. The GI50 (MOLT-4 leukemia) was 3.38 µM, the TGI (MOLT-4 leukemia) was 22.6 µM and the GI50 (NCI-H226 lung) was 3.27 µM. For the same molecule, the TGI (NCI-H226 lung) was 9.44 µM, the GI50 (NCI-H23 lung) was 2.38 µM and the TGI (NCI-H23 lung) was 6.68 µM. The GI50 (NCI-H460 lung) was 3.39 µM, the TGI (NCI-H460 lung) was 11.8 µM and the GI50 (NCI-H522 lung) was 1.55 µM. For the same molecule, the TGI (NCI-H522 lung) was 3.23 µM, the GI50 (NCI/ADR-RES ovarian) was 3.53 µM and the TGI (NCI/ADR-RES ovarian) was 22 µM. For the same molecule, the GI50 (OVCAR-3 ovarian) was 3.19 µM, the TGI (OVCAR-3 ovarian) was 12.1 µM and the GI50 (OVCAR-4 ovarian) was 4.61 µM. For the same molecule, the TGI (OVCAR-4 ovarian) was 16.9 µM, the GI50 (OVCAR-5 ovarian) was 2.76 µM and the TGI (OVCAR-5 ovarian) was 11 µM. It also gave a GI50 (OVCAR-8 ovarian) of 3.34 µM, a TGI (OVCAR-8 ovarian) of 10.5 µM and a GI50 (PC-3 prostate) of 4.68 µM. It also gave a TGI (PC-3 prostate) of 25.3 µM, a GI50 (RPMI-8226 leukemia) of 2.96 µM and a TGI (RPMI-8226 leukemia) of 22.7 µM. It also gave a GI50 (RXF 393 renal) of 2.18 µM, a TGI (RXF 393 renal) of 4.92 µM and a GI50 (SF-268 CNS) of 3.12 µM. The TGI (SF-268 CNS) was 13.7 µM, the GI50 (SF-295 CNS) was 2.87 µM and the TGI (SF-295 CNS) was 9.52 µM. The GI50 (SF-539 CNS) was 2.18 µM, the TGI (SF-539 CNS) was 6.92 µM and the GI50 (SK-MEL-2 melanoma) was 3.3 µM. For the same molecule, the TGI (SK-MEL-2 melanoma) was 12.9 µM, the GI50 (SK-MEL-28 melanoma) was 2.74 µM and the TGI (SK-MEL-28 melanoma) was 10.1 µM. For the same molecule, the GI50 (SK-MEL-5 melanoma) was 2.18 µM, the TGI (SK-MEL-5 melanoma) was 4.86 µM and the GI50 (SK-OV-3 ovarian) was 2.78 µM. For the same molecule, the TGI (SK-OV-3 ovarian) was 10.6 µM, the GI50 (SN12C renal) was 4.82 µM and the TGI (SN12C renal) was 19.5 µM. For the same molecule, the GI50 (SNB-19 CNS) was 3.54 µM, the TGI (SNB-19 CNS) was 13.2 µM and the GI50 (SW-620 colon) was 3.11 µM. The TGI (SW-620 colon) was 10.5 µM, the GI50 (T-47D breast) was 3.44 µM and the TGI (T-47D breast) was 22.7 µM. The GI50 (TK-10 renal) was 2.91 µM, the TGI (TK-10 renal) was 10.1 µM and the GI50 (U251 CNS) was 2.37 µM. For the same molecule, the TGI (U251 CNS) was 6.36 µM, the GI50 (UACC-257 melanoma) was 3.32 µM and the TGI (UACC-257 melanoma) was 11.3 µM. The GI50 (UACC-62 melanoma) was 2.59 µM, the TGI (UACC-62 melanoma) was 7.42 µM and the GI50 (UO-31 renal) was 2.74 µM. The TGI (UO-31 renal) was 12.3 µM.

From PubChem BioAssay (NCI)
